Test results reported in patent publication US4568690A, “1-Methyl-5-p-methylbenzoylpyrrole-2-acetamidoacetanilides with antiinflammatory, analgesic, antipyretic and anti-platelet aggregant activity” (priority 1983, dated 1986).
Like-named read-outs stand apart in the source and are kept apart here.

Tests used:
[1] = tested on: platelet aggregation (ADP-induced); experiment: in vitro anti-platelet aggregant activity (Born's method, ADP); assay type: cell-based, rat; conditions: for inhibition at 1 µg/mL / inhibition at 5 µg/mL / inhibition at 10 µg/mL: Rattus norvegicus, Platelet, read-out: Inhibition % (platelet aggregation)
Experimental: This activity was studied in vitro following Born's method (G. W. R. Born, Nature, 194, 937 (1962)) and inducing platelet aggregation with ADP. […] For the aggregation test, 0.2 ml of platelet rich plasma was mixed with a NaCl solution (0.9%) to which the test substance was added up to a final volume of 0.6 ml. Incubation was fixed at 3 minutes at 27° C. After aggregation was induced with ADP, the course of the aggregation was monitored continuously with an Elvi 840 Aggregometer (Elvi Logos--Milan). The antiaggregant effects were determined by the difference in the light transmission of the sample with respect to that of the ADP control. The test compound was compared with aspirin, which has known antiplatelet aggregant activity (H. J. Weiss et al., J. Clin. Inv., 47, 2169 (1968); Platelet Aggregation and Drugs, edited by L. Caprino and E. C. Rossi, page 235, Academic Press (London), 1974).
Table VI reports the inhibition of platelet aggregation with various doses of the compounds tested at a constant ADP concentration.

gastric mucosa = experiment: gastric tolerance (ulcerogenic activity); conditions: orally, four consecutive days; for Mean number severity: severity scale 0-5
Experimental: This was studied by testing ulcerogenic activity in male Wistar rats weighing an average of 180 g, using groups of 10 animals each. Three doses of each substance were used, and one group of animals was treated with vehicle only, in a volume of 10 ml/g body weight. Each dose was administered orally for four consecutive days, and the rats were killed on the fifth day and autopsied. The ulcerogenic effect was evaluated on the following scale:
(1) each hemorrhage point >1 mm was evaluated as 1 lesion
(2) the hemorrhage points <1 were counted as follows:
(b) from 1 to 19 2 lesions
(c) from 1 to 29 3 lesions
(2) gastric mucosa irritation
(3) hemorrhage points <1 mm
(4) hemorrhage points from 1 to 3 mm
(5) hemorrhage points >3 mm
This scale was used to calculate the following index of gastric damage: [formula]

carragenin-induced edema = carragenin-induced edema test (antinflammatory activity); assay type: in vivo, rats
Experimental: (§1) Preparations of the compound were administered orally and/or parenterally in a suspension in 0.59% carboxymethylcellulose in pH neutral physiological saline.
This effect was evaluated with an experimental model reproducing actue inflammation in rats: the carragenin-induced edema test was used, according to the method of C. A. Winter (G. Pharmac. Exp. Ther., 141, 369 (1963)). Table III reports the compounds tested, their concentrations, administration routes and relative percent edema inhibition.

[2] = tested on: p-phenylquinone-induced writhing; experiment: p-phenylquinone-induced writhing test (analgesic activity); assay type: in vivo; conditions: an hour after administration
Experimental: as §1
The determination was made an hour after administration of the product. The inhibitory effect on abdominal contractions induced by phenyl-p-quinone was calculated as follows: [formula]
Table IV reports the doses, the administration routes and their effectiveness expressed as % protection.

[3] = tested on: hyperthermia induced by dry purified beer yeast; experiment: antipyretic activity, beer yeast-induced hyperthermia; assay type: in vivo, Wistar strain male albino rats
Experimental: as §1
This effect was evaluated by inducing hyperthermia in Wistar strain male albino rats with an average weight of 250±10 g, injecting them intraperitoneally with a 10% suspension of dry purified beer yeast (Carlo Erba) in a volume of 10 ml/Kg of body weight, according to the method of S. Wong et al. (J. Pharmac. Exp. Ther., 185 (1), 127 (1973)).

Structure (SMILES): CC(=O)Oc1ccccc1C(=O)O [Aspirin, reference compound]
- inhibition at 1 µg/mL [1]: 15%
- inhibition at 5 µg/mL [1]: 60%
- inhibition at 10 µg/mL [1]: 100%

Structure (SMILES): COc1ccccc1NC(=O)CNC(=O)Cc1ccc(C(=O)c2ccc(C)cc2)n1C [Compound 1d]
- Index gastric damage (gastric mucosa; 50 mg/kg): 9
- Index gastric damage, signed figure (untitled; difference from Carrier index 8) (gastric mucosa; 50 mg/kg): +1
- Mean number lesions (gastric mucosa; 50 mg/kg): 1
- Mean number severity (gastric mucosa; 50 mg/kg): 1
- Index gastric damage (gastric mucosa; 100 mg/kg): 11
- Index gastric damage, signed figure (untitled; difference from Carrier index 8) (gastric mucosa; 100 mg/kg): +3
- Mean number lesions (gastric mucosa; 100 mg/kg): 1
- Mean number severity (gastric mucosa; 100 mg/kg): 2
- Index gastric damage (gastric mucosa; 200 mg/kg): 12
- Index gastric damage, signed figure (untitled; difference from Carrier index 8) (gastric mucosa; 200 mg/kg): +4
- Mean number lesions (gastric mucosa; 200 mg/kg): 2
- Mean number severity (gastric mucosa; 200 mg/kg): 2
- anti-platelet aggregant activity (in words) [1]: particularly pronounced anti-platelet aggregant activity
- inhibition at 1 µg/mL ([1]; 1 γ/ml, ADP 7.08 μmol/l): 20%
- inhibition at 5 µg/mL ([1]; 5 γ/ml, ADP 7.08 μmol/l): 70%
- inhibition at 10 µg/mL ([1]; 10 γ/ml, ADP 7.08 μmol/l): 90%
- Oedema inhibition % (carragenin-induced edema; i.p., 10 mg/kg, 3 h): 48.7%
- Oedema inhibition % (carragenin-induced edema; i.p., 10 mg/kg, 6 h): 36.5%
- Oedema inhibition % (carragenin-induced edema; i.p., 10 mg/kg, 24 h): 0.0%
- Oedema inhibition % (carragenin-induced edema; i.p., 50 mg/kg, 3 h): 59.2%
- Oedema inhibition % (carragenin-induced edema; i.p., 50 mg/kg, 6 h): 52.0%
- Oedema inhibition % (carragenin-induced edema; i.p., 50 mg/kg, 24 h): 18.9%
- Oedema inhibition % (carragenin-induced edema; i.p., 100 mg/kg, 3 h): 78.6%
- Oedema inhibition % (carragenin-induced edema; i.p., 100 mg/kg, 6 h): 66.3%
- Oedema inhibition % (carragenin-induced edema; i.p., 100 mg/kg, 24 h): 30.5%
- Oedema inhibition % (carragenin-induced edema; os, 10 mg/kg, 3 h): 47.2%
- Oedema inhibition % (carragenin-induced edema; os, 10 mg/kg, 6 h): 40.0%
- Oedema inhibition % (carragenin-induced edema; os, 10 mg/kg, 24 h): 9.0%
- Oedema inhibition % (carragenin-induced edema; os, 50 mg/kg, 3 h): 58.5%
- Oedema inhibition % (carragenin-induced edema; os, 50 mg/kg, 6 h): 54.0%
- Oedema inhibition % (carragenin-induced edema; os, 50 mg/kg, 24 h): 30.0%
- Oedema inhibition % (carragenin-induced edema; os, 100 mg/kg, 3 h): 77.1%
- Oedema inhibition % (carragenin-induced edema; os, 100 mg/kg, 6 h): 66.0%
- Oedema inhibition % (carragenin-induced edema; os, 100 mg/kg, 24 h): 38.0%
- antinflammatory, analgesic and antipyretic activity versus ester analogue (4) (in words) (carragenin-induced edema; rat, in vivo): comparable to that of the ester analogue (4)
- Protection % ([2]; i.p., 5 mg/kg): 29.0%
- Protection % ([2]; i.p., 10 mg/kg): 60.1%
- Protection % ([2]; i.p., 20 mg/kg): 73.4%
- Protection % ([2]; os, 5 mg/kg): 22.9%
- Protection % ([2]; os, 10 mg/kg): 54.2%
- Protection % ([2]; os, 20 mg/kg): 70.1%
- Temperature decrease % ([3]; i.p., 50 mg/kg, 1 h): 18.0%
- Temperature decrease % ([3]; i.p., 50 mg/kg, 2 h): 26.0%
- Temperature decrease % ([3]; i.p., 50 mg/kg, 3 h): 39.0%
- Temperature decrease % ([3]; i.p., 75 mg/kg, 1 h): 30.0%
- Temperature decrease % ([3]; i.p., 75 mg/kg, 2 h): 36.1%
- Temperature decrease % ([3]; i.p., 75 mg/kg, 3 h): 56.1%
- Temperature decrease % ([3]; i.p., 100 mg/kg, 1 h): 42.0%
- Temperature decrease % ([3]; i.p., 100 mg/kg, 2 h): 49.0%
- Temperature decrease % ([3]; i.p., 100 mg/kg, 3 h): 48.0%
- Temperature decrease % ([3]; os, 50 mg/kg, 1 h): 16.0%
- Temperature decrease % ([3]; os, 50 mg/kg, 6 h): 22.0%
- Temperature decrease % ([3]; os, 50 mg/kg, 24 h): 30.1%
- Temperature decrease % ([3]; os, 75 mg/kg, 1 h): 18.0%
- Temperature decrease % ([3]; os, 75 mg/kg, 6 h): 28.0%
- Temperature decrease % ([3]; os, 75 mg/kg, 24 h): 48.2%
- Temperature decrease % ([3]; os, 100 mg/kg, 1 h): 29.0%
- Temperature decrease % ([3]; os, 100 mg/kg, 6 h): 32.0%
- Temperature decrease % ([3]; os, 100 mg/kg, 24 h): 50.0%
